Legend:
[1] = Antiinflammatory activity against LPS-induced mouse RAW264.7 cells assessed as inhibition of NO production pretreated for 1 hr followed by LPS stimulation for 24 hrs by Griess assay; format: functional, cell-based
Mus musculus = species on record: Mus musculus; test: Cytotoxicity against mouse RAW264.7 cells at <25 uM by MTT assay; format: toxicity, cell-based

IC50 [1]	Structure (SMILES)	Activity (Mus musculus)
15.4 µM	C=C1[C@H]2CC3=C(C)C(=O)O[C@H]3C[C@]2(C)[C@H]2C[C@@H]12	Non-Toxic
> 25 µM	COC(=O)/C(C)=C1\C(=O)O[C@]2(C)[C@@H]3C[C@@H]3[C@@](C)(CO)[C@H]2[C@@H]1O	Non-Toxic
9 µM	C=C1Cc2occ(C)c2C2C=C(CC[C@H]1O)C(=O)O2 (stereo not given in full)	Non-Toxic
–	C=C1[C@H]2C[C@H]2[C@]2(C)C[C@]3(O)OC(=O)C(C)=C3[C@H](OC(C)=O)[C@H]12	Non-Toxic
21.6 µM	C=C1[C@H]2C[C@H]2[C@]2(C)C[C@@]3(O)OC(=O)C(C)=C3[C@H](OC)[C@H]12	Non-Toxic
> 25 µM	CC1=C2[C@@H]3OC(=O)[C@@]4(CC/C=C(\C)C[C@@]2(O)OC1=O)O[C@@H]34	Non-Toxic
> 25 µM	C=C1CC=C[C@@]2(C)C[C@@]3(O)OC(=O)C(C)=C3C[C@H]12	Non-Toxic
12.8 µM	CC(=O)O[C@H]1C2=C(C)C(=O)O[C@@]2(O)C[C@@]2(C)[C@@H]3C[C@@H]3[C@](C)(O)[C@@H]12	Non-Toxic
9.6 µM	CC1=C2C[C@@H]3[C@@](C)(O)[C@H]4C[C@H]4[C@]3(C)C[C@]2(O)OC1=O	Non-Toxic
–	C=C1[C@H]2C[C@H]2[C@]2(C)C[C@@]3(O)OC(=O)C(C)=C3[C@H](OC(C)=O)[C@H]12	Non-Toxic
–	CC1=C2C[C@@H]3[C@@](C)(O)[C@H]4C[C@H]4[C@]3(C)C[C@@H]2OC1=O	Non-Toxic
12.3 µM	C=C1[C@H]2C[C@H]2[C@]2(C)C[C@H]3OC(=O)C(C)=C3[C@H](O)[C@H]12	Non-Toxic
6.3 µM	CO[C@@]1(C)[C@H]2C[C@H]2[C@]2(C)C[C@@H]3OC(=O)C(C)=C3C[C@@H]21	Non-Toxic
22.5 µM	CC1=C2C(=O)[C@@H]3[C@](C)(O)[C@H]4C[C@H]4[C@@]3(C)C[C@H]2OC1=O	Non-Toxic
14.6 µM	CC1=C2[C@H](O)[C@@H]3[C@@](C)(O)[C@H]4C[C@H]4[C@]3(C)C[C@]2(O)OC1=O	Non-Toxic
> 25 µM	Cc1coc2c1[C@H]1C=C(CC[C@@H]3O[C@@]3(C)C2)C(=O)O1 [PSEUDONEOLINDERANE]	Non-Toxic

Structure (SMILES)	IC50 [1]	Activity (Mus musculus)
N=C(N)NN [PIMAGEDINE]	18.4 µM	–

Source: ChEMBL document CHEMBL3856263, “Sesquiterpenes from the roots of Lindera strychnifolia with inhibitory effects on nitric oxide production in RAW 264.7 cells” (Bioorg Med Chem Lett, 2016)
